Drawing on patent publication US20240294518A1, “NITROGEN-CONTAINING HETEROCYCLIC COMPOUND” (Evopoint Biosciences Co., Ltd., priority 2021, published 2024), this text covers IC50 for 33 molecules.

This experiment has as its target HPK1 kinase (Homo sapiens, UniProt Q92918). Kind of experiment: HPK1 kinase inhibition assay, ADP-Glo platform. The experiment is classed as biochemical. Conditions: 0.3 nM HPK1, 5 μM ATP, 0.05 mg/mL MBP. The method, then: The compounds to be tested were each dissolved in 100% DMSO, with the mother liquor concentration being 10 mM. The liquor was 3-fold diluted at a test starting concentration of 10 μM to yield ten data points, with two replicates set for each point.
The inhibition of the activity of HPK1 kinase by the compound was assayed using an ADP-Glo™ platform. The reaction was performed in a 384-well plate containing 0.3 nM HPK1, 5 μM ATP, 0.05 mg/mL MBP, 0-10 μM compound, and 1% DMSO per well. The reaction buffer was as follows: 50 mM HEPES, 10 mM MgCl2, 1 mM EGTA, 1 mM DTT, 0.01% Brij 35, pH=7.5. The compound and the kinase were incubated at 25° C. for 15 min, and a substrate and ATP were added to initiate the reaction. After 1 h of reaction at 25° C., the ADP-Glo™ reagent was added, and the reaction was terminated, followed by incubation at 25° C. for 1 h. The kinase detection reagent was added, and after 1 h of incubation at 25° C., the chemiluminescence signal was detected. Based on this reading, inhibition percentage was calculated, and IC50 for the compound was calculated using four-parameter fitting.

HPK1 kinase, sequence (Q92918 whole entry): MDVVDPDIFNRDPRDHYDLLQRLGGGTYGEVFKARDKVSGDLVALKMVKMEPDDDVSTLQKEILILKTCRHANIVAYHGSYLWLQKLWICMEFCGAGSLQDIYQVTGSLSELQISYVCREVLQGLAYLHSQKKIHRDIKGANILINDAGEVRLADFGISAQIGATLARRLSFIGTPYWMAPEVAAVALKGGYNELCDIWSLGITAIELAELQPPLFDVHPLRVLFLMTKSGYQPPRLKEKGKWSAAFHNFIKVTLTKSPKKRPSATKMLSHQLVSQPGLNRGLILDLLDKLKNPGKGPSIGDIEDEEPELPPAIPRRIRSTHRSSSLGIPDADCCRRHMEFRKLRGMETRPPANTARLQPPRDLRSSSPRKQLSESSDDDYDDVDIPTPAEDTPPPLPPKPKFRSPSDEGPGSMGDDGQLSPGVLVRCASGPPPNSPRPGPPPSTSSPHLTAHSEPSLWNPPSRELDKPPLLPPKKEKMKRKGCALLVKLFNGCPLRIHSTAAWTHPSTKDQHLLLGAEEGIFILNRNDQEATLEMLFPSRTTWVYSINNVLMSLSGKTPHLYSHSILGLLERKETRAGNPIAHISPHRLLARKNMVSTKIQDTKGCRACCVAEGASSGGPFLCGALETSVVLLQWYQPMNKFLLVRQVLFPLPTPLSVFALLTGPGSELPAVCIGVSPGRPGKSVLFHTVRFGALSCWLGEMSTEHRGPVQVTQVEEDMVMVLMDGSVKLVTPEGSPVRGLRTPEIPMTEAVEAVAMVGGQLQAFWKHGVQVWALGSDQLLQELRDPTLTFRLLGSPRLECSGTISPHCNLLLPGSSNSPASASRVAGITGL

With `CN(C)C(=O)C#Cc1c[nH]c2ncc(-c3ccc(C4CCOCC4)c(C4COCCN4)c3)cc12` (single isomer, unassigned) [Compound A-14], the IC50 lay in the range of 0.01 to 5 nM. Under `Cc1c[nH]c2ncc(-c3ccc(C4CCOCC4)c(C4COCCN4)c3)c(F)c12` (stereo not drawn) [Compound A-3] stands 5 to 10 nM; under `Cc1cc(-c2cnc3[nH]cc(C)c3c2)cc(C2COCCN2)c1C1CCOCC1` (stereo not drawn) [Compound A-5], 0.01 to 5 nM; under `Cc1c[nH]c2ncc(-c3cc(Cl)c(C4CCOCC4)c(C4COCCN4)c3)cc12` (stereo not drawn) [Compound A-6], 0.01 to 5 nM. As to `Cc1c[nH]c2ncc(-c3ccc(C4CCOCC4)c(C4COCCN4)n3)c(F)c12` (stereo not drawn) [Compound A-7], the half-inhibitory concentration (IC50) fell in the range of 10 to 100 nM.

The molecule `Cc1c[nH]c2ncc(-c3cc(C4COCCN4)c(C4CCOCC4)cc3Cl)cc12` (stereo not drawn) [Compound A-8] gave an IC50 of 10 to 100 nM. In the case of `COc1cc(-c2cnc3[nH]cc(C)c3c2)cc(C2COCCN2)c1C1CCOCC1` (stereo not drawn) [Compound A-9] it was 5 to 10 nM. On to `Cc1c[nH]c2ncc(-c3ccc(C4CCOCC4)c(C4COCCN4)c3F)cc12` (stereo not drawn) [Compound A-10], for which the IC50 lay within 10 to 100 nM. Under `Cc1c[nH]c2ncc(-c3cc(C4COCCN4)c(C4CCOCC4)cc3F)cc12` (stereo not drawn) [Compound A-11] stands 10 to 100 nM; under `Cc1cc(-c2cnc3[nH]cc(C)c3c2)cc(C2COCCN2)c1C1=CCOCC1` (stereo not drawn) [Compound A-12], 0.01 to 5 nM; under `Cc1c[nH]c2ncc(-c3cc(Cl)c(C4=CCOCC4)c(C4COCCN4)c3)cc12` (stereo not drawn) [Compound A-13], 5 to 10 nM. Under `c1nc2[nH]cc(C3CC3)c2cc1-c1ccc(C2CCOCC2)c([C@@H]2COCCN2)n1` [Compound A-15] stands 0.01 to 5 nM; under `c1nc2[nH]cc(C3CC3)c2cc1-c1ccc(C2CCOCC2)c([C@H]2COCCN2)n1` [Compound A-16], 10 to 100 nM.

`FC(F)(F)c1c[nH]c2ncc(-c3ccc(C4CCOCC4)c([C@@H]4COCCN4)n3)cc12` [Compound A-18] displayed an IC50 of 0.01 to 5 nM.

As to `Clc1c[nH]c2ncc(-c3ccc(C4CCOCC4)c([C@H]4COCCN4)n3)cc12` [Compound A-19], the concentration for half-maximal inhibition (IC50) lay within 10 to 100 nM.

On to `Clc1c[nH]c2ncc(-c3ccc(C4CCOCC4)c([C@@H]4COCCN4)n3)cc12` [Compound A-20], for which the concentration for half-maximal inhibition (IC50) is 0.01 to 5 nM.

`OCc1c[nH]c2ncc(-c3ccc(C4CCOCC4)c(C4COCCN4)n3)cc12` (stereo not drawn) [Compound A-21] yielded an IC50 of 5 to 10 nM. In the case of `c1nc2[nH]cc(C3CC3)c2cc1-c1ccc(C2CCOCC2)c(CN2CCCC2)n1` [Compound A-22] it was 0.01 to 5 nM; in that of `FC(F)(F)c1c[nH]c2ncc(-c3ccc(C4CCOCC4)c(CN4CCCC4)n3)cc12` [Compound A-23], 5 to 10 nM. `C[C@H]1CCCN1Cc1nc(-c2cnc3[nH]cc(C4CC4)c3c2)ccc1C1CCOCC1` [Compound A-24] came in with an IC50 of 5 to 10 nM.

On to `C[C@@H]1CCCN1Cc1nc(-c2cnc3[nH]cc(C4CC4)c3c2)ccc1C1CCOCC1` [Compound A-25], for which the half-inhibitory concentration (IC50) fell in the range of 0.01 to 5 nM.

In the case of `Cc1c[nH]c2ncc(-c3ccc(C4CCOCC4)c(CN4CCCC4)n3)cc12` [Compound A-26], the IC50 lay within 10 to 100 nM. Under `Cc1cc(-c2cnc3[nH]cc(C(F)(F)F)c3c2)nc(C2COCCN2)c1C1CCOCC1` (stereo not drawn) [Compound A-27] stands 0.01 to 5 nM.

In the case of `CN(C)Cc1nc(-c2cnc3[nH]cc(C(F)(F)F)c3c2)ccc1C1CCOCC1` [Compound A-28], the IC50 was in the range of 10 to 100 nM.

For the molecule `COC(=O)c1c[nH]c2ncc(-c3ccc(C4CCOCC4)c(C4COCCN4)n3)cc12` (stereo not drawn) [Compound A-29], the IC50 is 0.01 to 5 nM. In the case of `FC(F)(F)C1(c2c[nH]c3ncc(-c4ccc(C5CCOCC5)c([C@@H]5COCCN5)n4)cc23)CC1` [Compound A-30] it was 0.01 to 5 nM; in that of `Cc1cc(-c2cnc3[nH]cc(C(F)(F)F)c3c2)cc([C@H]2COCCN2)c1C1CCOCC1` [Compound A-32], 5 to 10 nM. In the case of `Cc1cc(-c2cnc3[nH]cc(C(F)(F)F)c3c2)cc([C@@H]2COCCN2)c1C1CCOCC1` [Compound A-33] it was 0.01 to 5 nM; in that of `COc1cc(-c2cnc3[nH]cc(C(F)(F)F)c3c2)cc([C@@H]2COCCN2)c1C1CCOCC1` [Compound A-34], 0.01 to 5 nM; in that of `COc1cc(-c2cnc3[nH]cc(C(F)(F)F)c3c2)cc([C@H]2COCCN2)c1C1CCOCC1` [Compound A-35], 10 to 100 nM. In the case of `Cc1cc(-c2cnc3[nH]cc(C)c3c2)cc([C@@H]2COCCN2)c1C1CCOCC1` [Compound A-36] it was 0.01 to 5 nM; in that of `COc1cc(-c2cnc3[nH]cc(C)c3c2)cc([C@@H]2COCCN2)c1C1CCOCC1` [Compound A-38], 0.01 to 5 nM; in that of `Cc1c[nH]c2ncc(-c3cc(O)c(C4CCOCC4)c(C4COCCN4)c3)cc12` (stereo not drawn) [Compound A-39], 0.01 to 5 nM.
